Results: the kinase profiling compilation of Christmann-Franck et al. (2016)

Tests used:
Assay in all cases: KINOMEscan competition binding
Settings in all cases: compound 10.0 µM
TSSK1B (human) = TSSK1B (human) (UniProt Q9BXA7)
TBK1 (human) = TBK1 (human) (UniProt Q9UHD2)
LRRK2 (human) = LRRK2 (human) (UniProt Q5S007)
CDK5 (human) = CDK5 (human) (UniProt Q00535)
MYLK2 (human) = MYLK2 (human) (UniProt Q9H1R3)
STK32C (human) = STK32C (human) (UniProt Q86UX6)
MAP2K7 (human) = MAP2K7 (human) (UniProt O14733)
DCLK1 (human) = DCLK1 (human) (UniProt O15075)
IKBKB (human) = IKBKB (human) (UniProt O14920)
DDR1 (human) = DDR1 (human) (UniProt Q08345)
EPHA6 (human) = EPHA6 (human) (UniProt Q9UF33)
PRKD2 (human) = PRKD2 (human) (UniProt Q9BZL6)
ACVR1B (human) = ACVR1B (human) (UniProt P36896)
CDC42BPA (human) = CDC42BPA (human) (UniProt Q5VT25)
PRKCE (human) = PRKCE (human) (UniProt Q02156)
SIK3 (human) = SIK3 (human) (UniProt Q9Y2K2)
MAP3K13 (human) = MAP3K13 (human) (UniProt O43283)
NUAK2 (human) = NUAK2 (human) (UniProt Q9H093)
AAK1 (human) = AAK1 (human) (UniProt Q2M2I8)
RPS6KA2 KD1 (human) = RPS6KA2 KD1 (human) (UniProt Q15349)
CSNK1D (human) = CSNK1D (human) (UniProt P48730)
PLK4 (human) = PLK4 (human) (UniProt O00444)
EPHB3 (human) = EPHB3 (human) (UniProt P54753)
AXL (human) = AXL (human) (UniProt P30530)
PRKD3 (human) = PRKD3 (human) (UniProt O94806)
NUAK1 (human) = NUAK1 (human) (UniProt O60285)
PKN2 (human) = PKN2 (human) (UniProt Q16513)
MAPK8 (human) = MAPK8 (human) (UniProt P45983)
NEK5 (human) = NEK5 (human) (UniProt Q6P3R8)
FES (human) = FES (human) (UniProt P07332)
IGF1R (human) = IGF1R (human) (UniProt P08069)
CAMKK1 (human) = CAMKK1 (human) (UniProt Q8N5S9)
MET (human) = MET (human) (UniProt P08581)
CDK14 (human) = CDK14 (human) (UniProt O94921)
RIOK2 (human) = RIOK2 (human) (UniProt Q9BVS4)
MAST1 (human) = MAST1 (human) (UniProt Q9Y2H9)
EPHB4 (human) = EPHB4 (human) (UniProt P54760)
PAK6 (human) = PAK6 (human) (UniProt Q9NQU5)
ACVR2A (human) = ACVR2A (human) (UniProt P27037)
AKT1 (human) = AKT1 (human) (UniProt P31749)
AKT1 (human), sequence (P31749 whole entry, looked up): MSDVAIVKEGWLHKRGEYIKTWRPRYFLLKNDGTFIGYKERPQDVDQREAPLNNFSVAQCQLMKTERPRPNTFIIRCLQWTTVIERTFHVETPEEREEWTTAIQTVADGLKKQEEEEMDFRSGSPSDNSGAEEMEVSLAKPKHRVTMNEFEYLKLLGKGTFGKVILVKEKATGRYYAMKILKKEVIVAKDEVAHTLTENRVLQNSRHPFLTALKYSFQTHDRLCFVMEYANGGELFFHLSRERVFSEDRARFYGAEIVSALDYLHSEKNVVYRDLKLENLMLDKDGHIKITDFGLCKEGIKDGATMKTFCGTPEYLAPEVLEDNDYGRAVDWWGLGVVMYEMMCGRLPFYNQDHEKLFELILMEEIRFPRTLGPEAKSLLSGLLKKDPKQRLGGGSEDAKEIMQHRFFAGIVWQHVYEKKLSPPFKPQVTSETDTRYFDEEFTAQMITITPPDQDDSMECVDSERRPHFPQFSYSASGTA

MET (human), sequence (P08581 whole entry, looked up): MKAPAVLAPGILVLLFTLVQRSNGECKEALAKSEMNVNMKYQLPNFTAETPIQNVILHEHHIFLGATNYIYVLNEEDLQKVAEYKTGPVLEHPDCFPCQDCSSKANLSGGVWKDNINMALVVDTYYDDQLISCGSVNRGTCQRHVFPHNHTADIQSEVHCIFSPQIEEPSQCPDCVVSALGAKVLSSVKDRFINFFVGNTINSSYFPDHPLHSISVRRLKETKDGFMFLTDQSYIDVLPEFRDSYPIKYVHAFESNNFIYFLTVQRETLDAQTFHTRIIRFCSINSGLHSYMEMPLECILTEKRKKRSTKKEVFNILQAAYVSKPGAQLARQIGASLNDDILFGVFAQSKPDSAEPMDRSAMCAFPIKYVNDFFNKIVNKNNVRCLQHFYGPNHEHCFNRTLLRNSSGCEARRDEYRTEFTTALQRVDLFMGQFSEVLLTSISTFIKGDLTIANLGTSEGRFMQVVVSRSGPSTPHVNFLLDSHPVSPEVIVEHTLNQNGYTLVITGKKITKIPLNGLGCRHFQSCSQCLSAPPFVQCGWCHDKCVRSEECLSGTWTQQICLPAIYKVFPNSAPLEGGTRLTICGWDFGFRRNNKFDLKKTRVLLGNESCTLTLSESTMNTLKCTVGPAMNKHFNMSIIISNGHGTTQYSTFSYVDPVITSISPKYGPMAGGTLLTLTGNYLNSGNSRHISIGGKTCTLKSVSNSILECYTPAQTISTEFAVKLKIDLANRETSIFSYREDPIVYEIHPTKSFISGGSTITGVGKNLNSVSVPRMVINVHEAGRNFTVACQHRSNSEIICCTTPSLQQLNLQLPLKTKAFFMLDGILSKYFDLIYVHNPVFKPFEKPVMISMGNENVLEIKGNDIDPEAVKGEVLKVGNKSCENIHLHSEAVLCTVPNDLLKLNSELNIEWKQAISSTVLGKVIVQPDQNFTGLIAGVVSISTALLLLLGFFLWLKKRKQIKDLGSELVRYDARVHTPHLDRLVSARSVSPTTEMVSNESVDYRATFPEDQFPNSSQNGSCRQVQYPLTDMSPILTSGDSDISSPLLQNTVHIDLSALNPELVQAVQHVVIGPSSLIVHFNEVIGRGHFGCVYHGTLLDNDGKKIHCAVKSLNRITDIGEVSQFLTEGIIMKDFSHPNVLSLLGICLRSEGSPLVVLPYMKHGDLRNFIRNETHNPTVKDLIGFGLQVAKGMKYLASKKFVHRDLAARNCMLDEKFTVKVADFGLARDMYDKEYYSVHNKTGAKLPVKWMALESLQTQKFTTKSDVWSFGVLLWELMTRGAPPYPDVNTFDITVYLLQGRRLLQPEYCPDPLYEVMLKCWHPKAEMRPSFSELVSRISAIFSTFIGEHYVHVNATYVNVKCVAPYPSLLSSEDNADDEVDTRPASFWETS
PRKCE (human), sequence (Q02156 whole entry, looked up): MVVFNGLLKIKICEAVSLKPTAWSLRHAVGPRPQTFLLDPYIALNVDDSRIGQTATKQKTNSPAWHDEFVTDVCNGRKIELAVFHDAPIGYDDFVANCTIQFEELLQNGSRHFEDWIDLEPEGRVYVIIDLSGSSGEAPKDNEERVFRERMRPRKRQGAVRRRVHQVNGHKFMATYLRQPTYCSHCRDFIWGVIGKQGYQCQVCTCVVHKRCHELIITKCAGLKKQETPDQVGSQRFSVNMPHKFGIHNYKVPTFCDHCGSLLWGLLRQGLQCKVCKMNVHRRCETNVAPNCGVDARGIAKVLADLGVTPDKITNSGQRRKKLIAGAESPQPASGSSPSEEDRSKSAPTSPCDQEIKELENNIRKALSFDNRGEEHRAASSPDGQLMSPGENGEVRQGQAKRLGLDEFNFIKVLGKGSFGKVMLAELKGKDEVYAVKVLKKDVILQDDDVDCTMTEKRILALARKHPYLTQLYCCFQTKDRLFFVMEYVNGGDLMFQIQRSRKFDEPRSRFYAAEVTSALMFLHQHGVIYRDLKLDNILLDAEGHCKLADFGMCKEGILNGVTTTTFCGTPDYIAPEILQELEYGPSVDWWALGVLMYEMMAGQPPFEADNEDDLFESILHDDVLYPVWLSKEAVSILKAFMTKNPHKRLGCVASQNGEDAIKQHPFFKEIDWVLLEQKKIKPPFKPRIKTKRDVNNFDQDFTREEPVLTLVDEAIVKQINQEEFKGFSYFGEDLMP
IKBKB (human), sequence (O14920 whole entry, looked up): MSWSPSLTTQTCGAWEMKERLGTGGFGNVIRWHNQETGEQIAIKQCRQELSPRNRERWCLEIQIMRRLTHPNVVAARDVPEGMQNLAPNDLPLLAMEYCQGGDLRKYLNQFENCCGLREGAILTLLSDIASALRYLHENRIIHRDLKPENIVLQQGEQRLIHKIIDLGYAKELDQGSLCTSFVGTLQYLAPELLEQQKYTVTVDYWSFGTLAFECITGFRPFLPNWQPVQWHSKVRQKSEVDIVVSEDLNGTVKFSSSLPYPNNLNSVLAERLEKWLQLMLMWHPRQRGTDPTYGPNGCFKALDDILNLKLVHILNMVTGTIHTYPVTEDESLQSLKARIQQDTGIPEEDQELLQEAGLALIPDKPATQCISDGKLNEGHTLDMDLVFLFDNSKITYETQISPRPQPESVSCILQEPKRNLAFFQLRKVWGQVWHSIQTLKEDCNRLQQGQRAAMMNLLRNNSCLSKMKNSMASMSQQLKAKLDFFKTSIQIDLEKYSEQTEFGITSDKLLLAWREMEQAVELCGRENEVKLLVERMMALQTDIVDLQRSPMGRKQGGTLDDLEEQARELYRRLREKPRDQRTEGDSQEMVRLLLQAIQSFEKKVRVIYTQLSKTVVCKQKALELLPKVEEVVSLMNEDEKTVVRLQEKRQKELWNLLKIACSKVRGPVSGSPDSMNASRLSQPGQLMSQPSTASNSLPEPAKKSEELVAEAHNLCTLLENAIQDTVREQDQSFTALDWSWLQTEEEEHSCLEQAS
NUAK1 (human), sequence (O60285 whole entry, looked up): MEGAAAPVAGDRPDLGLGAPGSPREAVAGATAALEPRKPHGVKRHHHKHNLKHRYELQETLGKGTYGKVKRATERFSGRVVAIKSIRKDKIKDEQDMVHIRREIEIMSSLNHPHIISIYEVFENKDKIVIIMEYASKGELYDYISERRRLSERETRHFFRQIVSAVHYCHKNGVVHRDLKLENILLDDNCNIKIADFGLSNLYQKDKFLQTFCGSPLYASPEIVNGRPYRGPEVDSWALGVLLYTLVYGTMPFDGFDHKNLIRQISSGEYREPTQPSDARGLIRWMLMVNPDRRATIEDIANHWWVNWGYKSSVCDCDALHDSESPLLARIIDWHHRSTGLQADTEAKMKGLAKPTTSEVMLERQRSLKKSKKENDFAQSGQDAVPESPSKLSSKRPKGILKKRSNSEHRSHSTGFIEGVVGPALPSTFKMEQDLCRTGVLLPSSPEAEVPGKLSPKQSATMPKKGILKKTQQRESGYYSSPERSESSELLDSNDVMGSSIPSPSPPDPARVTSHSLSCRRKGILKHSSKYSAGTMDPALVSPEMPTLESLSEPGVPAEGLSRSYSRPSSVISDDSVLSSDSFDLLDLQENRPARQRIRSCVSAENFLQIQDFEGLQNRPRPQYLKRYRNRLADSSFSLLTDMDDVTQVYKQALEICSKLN
EPHB3 (human), sequence (P54753 whole entry, looked up): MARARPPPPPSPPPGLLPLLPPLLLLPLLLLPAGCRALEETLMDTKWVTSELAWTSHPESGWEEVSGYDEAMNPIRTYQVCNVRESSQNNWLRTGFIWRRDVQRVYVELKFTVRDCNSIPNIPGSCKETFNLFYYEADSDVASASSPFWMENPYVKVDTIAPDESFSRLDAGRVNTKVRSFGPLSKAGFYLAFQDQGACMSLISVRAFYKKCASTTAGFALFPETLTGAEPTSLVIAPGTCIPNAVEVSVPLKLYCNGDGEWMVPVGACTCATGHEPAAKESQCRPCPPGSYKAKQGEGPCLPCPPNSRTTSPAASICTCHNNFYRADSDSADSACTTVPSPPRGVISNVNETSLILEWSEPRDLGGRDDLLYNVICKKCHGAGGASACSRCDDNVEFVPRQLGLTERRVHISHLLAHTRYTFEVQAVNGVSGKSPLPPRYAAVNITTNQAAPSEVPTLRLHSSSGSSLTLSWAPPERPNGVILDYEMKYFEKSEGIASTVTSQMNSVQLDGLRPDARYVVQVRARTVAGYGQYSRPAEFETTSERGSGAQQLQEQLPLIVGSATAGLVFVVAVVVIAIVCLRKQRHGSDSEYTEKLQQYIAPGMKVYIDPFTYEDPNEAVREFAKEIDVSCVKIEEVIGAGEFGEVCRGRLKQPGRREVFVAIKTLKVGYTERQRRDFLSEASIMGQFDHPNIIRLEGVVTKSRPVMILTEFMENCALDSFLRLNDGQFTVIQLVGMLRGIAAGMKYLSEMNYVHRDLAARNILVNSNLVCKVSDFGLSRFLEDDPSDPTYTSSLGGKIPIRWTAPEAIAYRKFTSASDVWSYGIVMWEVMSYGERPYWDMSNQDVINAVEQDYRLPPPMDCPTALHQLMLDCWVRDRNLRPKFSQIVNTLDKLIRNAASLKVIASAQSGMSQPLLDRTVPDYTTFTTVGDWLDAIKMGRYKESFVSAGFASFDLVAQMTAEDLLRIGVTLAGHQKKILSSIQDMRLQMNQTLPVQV

SMILES | kinase still bound, per cent of control (TSSK1B (human)) | kinase still bound, per cent of control (TBK1 (human)) | kinase still bound, per cent of control (LRRK2 (human)) | kinase still bound, per cent of control (CDK5 (human)) | kinase still bound, per cent of control (MYLK2 (human)) | kinase still bound, per cent of control (STK32C (human)) | kinase still bound, per cent of control (MAP2K7 (human)) | kinase still bound, per cent of control (DCLK1 (human)) | kinase still bound, per cent of control (IKBKB (human)) | kinase still bound, per cent of control (DDR1 (human)) | kinase still bound, per cent of control (EPHA6 (human)) | kinase still bound, per cent of control (PRKD2 (human)) | kinase still bound, per cent of control (ACVR1B (human)) | kinase still bound, per cent of control (CDC42BPA (human)) | kinase still bound, per cent of control (PRKCE (human)) | kinase still bound, per cent of control (SIK3 (human)) | kinase still bound, per cent of control (MAP3K13 (human)) | kinase still bound, per cent of control (NUAK2 (human)) | kinase still bound, per cent of control (AAK1 (human)) | kinase still bound, per cent of control (RPS6KA2 KD1 (human)) | further results
O=C(Nc1cccc(Nc2ncc(Br)c(NCCc3cnc[nH]3)n2)c1)N1CCCC1 | 48% | 0.7% | 11% | 24% | 0.35% | 100% | 60% | 35% | 8.4% | 100% | 54% | 1.7% | 61% | 95% | 0% | 7% | 9.9% | 3.8% | 3.1% | 7.6% | kinase still bound, per cent of control (CSNK1D (human)): 73%; kinase still bound, per cent of control (PLK4 (human)): 0.7%; kinase still bound, per cent of control (EPHB3 (human)): 100%; kinase still bound, per cent of control (AXL (human)): 1.2%; kinase still bound, per cent of control (PRKD3 (human)): 0.5%; kinase still bound, per cent of control (NUAK1 (human)): 0%; kinase still bound, per cent of control (PKN2 (human)): 4.6%; kinase still bound, per cent of control (MAPK8 (human)): 0.2%; kinase still bound, per cent of control (NEK5 (human)): 0.5%; kinase still bound, per cent of control (FES (human)): 33%; kinase still bound, per cent of control (IGF1R (human)): 17%; kinase still bound, per cent of control (CAMKK1 (human)): 8.8%; kinase still bound, per cent of control (MET (human)): 4.4%; kinase still bound, per cent of control (CDK14 (human)): 44%; kinase still bound, per cent of control (RIOK2 (human)): 36%; kinase still bound, per cent of control (MAST1 (human)): 58%; kinase still bound, per cent of control (EPHB4 (human)): 78%; kinase still bound, per cent of control (PAK6 (human)): 11%; kinase still bound, per cent of control (ACVR2A (human)): 6.4%; kinase still bound, per cent of control (AKT1 (human)): 100%
O=C1NC(=O)/C(=C/c2ccc3nccc(-c4ccncc4)c3c2)S1 | 2.2% | 29% | 62% | 82% | 46% | 96% | 38% | 77% | 34% | 62% | 83% | 90% | 51% | 90% | 38% | 93% | 82% | 36% | 1% | 100% | kinase still bound, per cent of control (CSNK1D (human)): 3.6%; kinase still bound, per cent of control (PLK4 (human)): 40%; kinase still bound, per cent of control (EPHB3 (human)): 71%; kinase still bound, per cent of control (AXL (human)): 7.6%; kinase still bound, per cent of control (PRKD3 (human)): 74%; kinase still bound, per cent of control (NUAK1 (human)): 100%; kinase still bound, per cent of control (PKN2 (human)): 31%; kinase still bound, per cent of control (MAPK8 (human)): 18%; kinase still bound, per cent of control (NEK5 (human)): 100%; kinase still bound, per cent of control (FES (human)): 100%; kinase still bound, per cent of control (IGF1R (human)): 100%; kinase still bound, per cent of control (CAMKK1 (human)): 12%; kinase still bound, per cent of control (MET (human)): 32%; kinase still bound, per cent of control (CDK14 (human)): 37%; kinase still bound, per cent of control (RIOK2 (human)): 37%; kinase still bound, per cent of control (MAST1 (human)): 83%; kinase still bound, per cent of control (EPHB4 (human)): 74%; kinase still bound, per cent of control (PAK6 (human)): 83%; kinase still bound, per cent of control (ACVR2A (human)): 83%; kinase still bound, per cent of control (AKT1 (human)): 90%
